According to patent US6825348B2, “Antiviral compounds” (Academia Sinica, priority 2002, dated 2004):
In brackets after ≈: the same amount, converted by molar mass. Read-outs that look alike come from different tables or passages of the source.

Experiments:
[1] = molecular target: HSV thymidine kinase (Human herpesvirus 1, UniProt P0DTH5); test: Phosphorylation of nucleosides by HSV thymidine kinase; type: biochemical
[2] = Lipophilicity, 1-octanol/water partition coefficient; settings: 1-octanol/water (0.10 M phosphate buffer)
[3] = test system: HSV-1 (KOS); test: Anti-HSV-1 activity in vivo, HSV-1-induced mortality in NMRI mice; settings: 6 days; for mean day of animal death / mean day of symptom initiation: terminated day 21; for protection against HSV-induced mortality: 150 mg/kg dose level i.p.; for responders at 100 mg/kg / responders at 150 mg/kg / responders at 250 mg/kg: Human alphaherpesvirus 1, ip, 504 h
[4] = test system: Vero cell thymidine kinase; test: Phosphorylation of nucleosides by Vero cell thymidine kinase; type: biochemical; settings: for Km: apparent Km, 37° C., pH 7.5; for rel. Vmax, Vero cell thymidine kinase: relative to thymidine = 1.0 × 10^2
[5] = test system: herpes simplex type 1 virus (HSV-1) (KOS); test: Inhibition of HSV-1 cytopathogenicity in Vero cell culture; type: cell-based; settings: Human alphaherpesvirus 1, Vero, read-out: IC50 HSV-1 (KOS)
[6] = Solubility in water (phosphate buffer, UV absorbance); settings: phosphate buffer, pH 6.8, aqueous buffer, thermodynamic from solid
[7] = test system: Vero cells; settings: African green monkey
[8] = test system: human cytomegalovirus (AD-169); test: Inhibition of HCMV cytopathogenicity in Vero cell culture; type: cell-based; settings: Human betaherpesvirus 5, AD169; Vero cell culture; 50% inhibition of cytopathogenicity; for 1:1 mixtures IC50 refers to known antiviral drugs; read-out: IC50 HCMV (AD-169)
[9] = test system: HeLa cells; settings: human
[10] = test system: thymidine kinase-positive (TK+) varicella-zoster virus (YS); test: Inhibition of TK+ VZV cytopathogenicity in Vero cell culture; type: cell-based
[11] = test system: thymidine kinase-deficient (TK−) varicella-zoster virus (YS/R); test: microbe, parasite or virus in culture; type: cell-based; settings: Human alphaherpesvirus 3, Vero, read-out: IC50 TK−VZV (YS/R)
[12] = molecular target: T1, calf mucosal adenosine deaminase (ADA, EC 3.5.4.4) (Bos taurus, UniProt P56658); test: Substrate activity and competitive inhibition of adenosine deaminase; type: biochemical; settings: for type of ADA inhibition in words: ara-A used as substrate; for rel. Vmax: compound as ADA substrate, relative to ara A 3 = 1.0; for Ki: inhibition of ADA with ara-A 3 as substrate
T1 sequence (P56658 1-363): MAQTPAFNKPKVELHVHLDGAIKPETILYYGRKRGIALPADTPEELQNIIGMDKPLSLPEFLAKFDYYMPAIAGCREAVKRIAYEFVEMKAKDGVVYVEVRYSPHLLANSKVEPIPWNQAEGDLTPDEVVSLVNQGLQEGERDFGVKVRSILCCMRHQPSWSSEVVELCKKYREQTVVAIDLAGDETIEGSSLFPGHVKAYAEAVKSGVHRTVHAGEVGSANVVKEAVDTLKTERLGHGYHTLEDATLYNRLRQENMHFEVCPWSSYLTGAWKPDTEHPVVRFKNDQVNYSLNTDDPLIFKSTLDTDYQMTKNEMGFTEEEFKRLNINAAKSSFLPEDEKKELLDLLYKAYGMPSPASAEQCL

[13] = LD50 and toxicity in mice, intraperitoneal
[14] = 100 mg/kg/day i.p., read-out: percentage of HSV-1-infected mice alive at day 21 postinfection
[15] = 100 mg/kg/day i.p., read-out: percentage of HSV-1-infected mice without symptoms at day 21 postinfection
[16] = 150 mg/kg/day i.p., read-out: percentage of HSV-1-infected mice alive at day 21 postinfection
[17] = 150 mg/kg/day i.p., read-out: percentage of HSV-1-infected mice without symptoms at day 21 postinfection
[18] = 250 mg/kg/day i.p., read-out: percentage of HSV-1-infected mice alive at day 21 postinfection
[19] = 250 mg/kg/day i.p., read-out: percentage of HSV-1-infected mice without symptoms at day 21 postinfection
[20] = mixture with acyclovir 2 (w/w=1:1)

HSV thymidine kinase, sequence (P0DTH5 whole entry, looked up): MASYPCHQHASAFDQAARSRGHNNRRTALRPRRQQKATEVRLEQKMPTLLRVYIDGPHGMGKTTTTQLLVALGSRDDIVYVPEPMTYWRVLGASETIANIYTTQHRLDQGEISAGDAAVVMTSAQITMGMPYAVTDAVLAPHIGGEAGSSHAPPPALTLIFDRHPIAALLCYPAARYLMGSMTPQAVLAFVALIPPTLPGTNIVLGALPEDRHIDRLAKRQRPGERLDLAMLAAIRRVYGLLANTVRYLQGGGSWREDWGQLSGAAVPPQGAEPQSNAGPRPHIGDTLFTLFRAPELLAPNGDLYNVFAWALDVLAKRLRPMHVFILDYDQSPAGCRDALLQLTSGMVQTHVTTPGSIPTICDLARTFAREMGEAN

SMILES | rel. Vmax, HSV thymidine kinase [1] | logP at […] [2] | mean day of animal death ([3]; 100 mg/kg/day i.p.) [days] | mean day of symptom initiation ([3]; 100 mg/kg/day i.p.) [days] | protection against HSV-induced mortality [3] | mean day of animal death ([3]; 150 mg/kg/day i.p.) [days] | mean day of symptom initiation ([3]; 150 mg/kg/day i.p.) [days] | mean day of animal death ([3]; 250 mg/kg/day i.p.) [days] | mean day of symptom initiation ([3]; 250 mg/kg/day i.p.) [days] | responders at 100 mg/kg [3, 14] [%] | responders at 100 mg/kg [3, 15] [%] | responders at 150 mg/kg [3, 16] [%] | responders at 150 mg/kg [3, 17] [%] | Km [4] [mM] | rel. Vmax, Vero cell thymidine kinase [4] | IC50 [5] [µg/mL] | solubility at 20 h [6] [µg/mL] | Vero cell, concentration causing microscopically visible change or disruption in about 50% of the cell sheet [7] [µg/mL] | IC50 [8] [µg/mL] | HeLa cell, concentration causing microscopically visible change or disruption in about 50% of the cell sheet [9] [µg/mL] | further results
Nc1nc2c(ncn2COCCO)c(=O)[nH]1 [acyclovir 2, 9-[(2-hydroxyethoxy)methyl]guanine, reference compound] | 39.2 | -0.48 | 18.9 ± 2.1 | 15.6 ± 1.6 | full protection | >21 | 19.1 ± 1.3 | >21 | >21 | 80 | 65 | 100 | 86 | 22 | <3.0 | 0.46 (≈ 2.04 µM) | 400 (≈ 1780 µM) | 269 | 32 (≈ 142 µM) | 259 | responders at 250 mg/kg [3, 18]: 100%; responders at 250 mg/kg [3, 19]: 100%
Nc1ncnc2c1ncn2COCCO [Compound 1, 9-[(2-Hydroxyethoxy)methyl]adenine, reference compound] | <3.0 | 0.98 | – | – | – | – | – | – | – | – | – | – | – | > 30 | <3.0 | 4.5 (≈ 21.5 µM) | 2560 (≈ 12200 µM) | 209 | 4.8 (≈ 22.9 µM) | 196 | effect on the rate of phosphorylation of acyclovir 2 in words [1, 20]: did not induce any increase; IC50 TK+VZV (YS) [10]: 7.0 µg/mL (≈ 33.5 µM); IC50 [11]: 9 µg/mL (≈ 43 µM); ADA substrate / inhibitor property in words [12]: functioned as ADA substrates; type of ADA inhibition in words [12]: competitive inhibition; rel. Vmax [12]: 1.48 × 10^−2; Ki [12]: 141 µM
Nc1ncnc2ncn(COCCO)c12 [Compound 14, 7-[(2-Hydroxyethoxy)methyl]adenine] | <3.0 | 1.24 | 19.8 ± 1.7 | 17.5 ± 2.1 | full protection | >21 | 19.9 ± 1.3 | >21 | >21 | 95 | 80 | 100 | 88 | > 30 | <3.0 | 0.58 (≈ 2.77 µM) | 4710 (≈ 22500 µM) | 496 | 1 (≈ 4.78 µM) | 472 | increase on the rate of phosphorylation of acyclovir 2 by HSV thymidine kinase [1, 20]: 2 fold; IC50 TK+VZV (YS) [10]: 1.1 µg/mL (≈ 5.26 µM); IC50 [11]: 0.97 µg/mL (≈ 4.64 µM); LD50 ([13]; NMRI, mouse, in vivo, ip): 950 mg/kg; level up to which no toxicity was shown ([13]; mice, intraperitoneal): 400 mg/kg; responders at 250 mg/kg [3, 18]: 100%; responders at 250 mg/kg [3, 19]: 100%; ADA substrate / inhibitor property in words [12]: functioned as ADA substrates; type of ADA inhibition in words [12]: competitive inhibition; rel. Vmax [12]: 1.50 × 10^−6; Ki [12]: 8.3 µM
